Experimental findings from ChEMBL document CHEMBL1142656, “Identification of 3-(acylamino)azepan-2-ones as stable broad-spectrum chemokine inhibitors resistant to metabolism in vivo” (2005) are described below.

The assay concerns THP-1. Kind of assay: In vitro activity to inhibit MCP-1-induced leukocyte migration of THP-1 cells. The assay is classed as functional. As to conditions: Homo sapiens, read-out: ED50 (the source's name).

In the case of `C=CCCCCCCCCC(=O)N[C@H]1CCCNC1=O`, the EC50 worked out at 0.1 µM.

Consider `C=CCCCCCCCCC(=O)N[C@H]1CCC(=O)N(C)C1=O`, for which the EC50 was determined as 0.033 µM. The same measure for `C#CCCCCCCCCC(=O)N[C@H]1CCCCNC1=O`: 0.01 µM; for `CCCCCCCCCCC(=O)N[C@H]1CCCCNC1=O`: 0.05 µM. Then `CCCCCCCCCCC(=O)N[C@H](CCC(=O)O)C(N)=O`, with 40 µM; and `CCCCCC/C=C\CCCCCCCC(=O)N[C@H]1CCCCNC1=O`, with 0.003 µM; and `C=CCCCCCCCCC(=O)N[C@@H]1CCC(=O)NC1=O`, with 0.25 µM.

As for `CCCCCCCCCCC(=O)N[C@@H](CCC(=O)O)C(=O)O`, the EC50 is 10 µM. The same measure for `CCCCCCCCCCCCCCCC(=O)N[C@H]1CCCCNC1=O`: 0.003 µM; for `C=CCCCCCCCCC(=O)N[C@H]1CCCCNC1=O`: 0.04 µM; for `C=CCCCCCCCCC(=O)N[C@H]1CCNC1=O`: 0.245 µM.

On to `CCCCCCCCCCCC(=O)N[C@H]1CCCCNC1=O`, for which the EC50 was 0.015 µM. The same measure for `CCCCCCCCCCC(=O)N[C@@H](CCC(N)=O)C(=O)O`: 30 µM; for `CCCCCCCCCCCCCC(=O)N[C@H]1CCCCNC1=O`: 0.005 µM. On to `C=CCCCCCCCCC(=O)N[C@H]1CCC(=O)NC1=O`, for which the EC50 came out at 0.005 µM. The same measure for `CCCCCCCC/C=C\CCCCCCCC(=O)N[C@H]1CCCCNC1=O`: 0.003 µM; for `CCCCCCCC/C=C\CCCCCCCC(=O)N[C@@H]1CCCCNC1=O`: 0.03 µM; for `CCCCCCCCCCC(=O)N[C@H](CCC(N)=O)C(=O)O`: 50 µM. Then `CCCCCCCCCCC(=O)N[C@H](CCC(=O)O)C(=O)O`, with 25 µM; and `CCCCCCCCCCC(=O)N[C@@H](CCC(=O)O)C(N)=O`, with 15 µM. Then `CCCCCCCCCCCCCCCC(=O)N[C@@H]1CCCCNC1=O`, with 0.04 µM; and `CCCCCCCCCCC(=O)NC1CCC(=O)NC1=O` (single isomer, unassigned), with 0.01 µM; and `N[C@@H](CCCC(=O)O)C(=O)O` [(S)-2-AMINOADIPIC ACID], with more than 100 µM. For the molecule `N[C@H](CCC(=O)O)C(=O)O` [D-GLUTAMATE], the EC50 was more than 100 µM.
